Test results: article PMC9000336, “Development of Bicyclo[3.1.0]hexane-Based A3 Receptor Ligands: Closing the Gaps in the Structure–Affinity Relationships” (Molecules, 2022)

Columns and labels:
[1] = biological target: T1, human adenosine A2A receptor (Homo sapiens, UniProt P29274); test: Radioligand displacement assay, human adenosine A2A receptor ([3H]ZM241385, HEK293hA2AR membranes); type: binding; conditions: test compound 10 µM; n = 3
T1 construct: expressed in transfected cells; host or cells: HEK293 cells (HEK293hA2AR), from Dr. J. Wang (Biogen/IDEC); membrane preparation
T1 sequence (P29274 whole entry): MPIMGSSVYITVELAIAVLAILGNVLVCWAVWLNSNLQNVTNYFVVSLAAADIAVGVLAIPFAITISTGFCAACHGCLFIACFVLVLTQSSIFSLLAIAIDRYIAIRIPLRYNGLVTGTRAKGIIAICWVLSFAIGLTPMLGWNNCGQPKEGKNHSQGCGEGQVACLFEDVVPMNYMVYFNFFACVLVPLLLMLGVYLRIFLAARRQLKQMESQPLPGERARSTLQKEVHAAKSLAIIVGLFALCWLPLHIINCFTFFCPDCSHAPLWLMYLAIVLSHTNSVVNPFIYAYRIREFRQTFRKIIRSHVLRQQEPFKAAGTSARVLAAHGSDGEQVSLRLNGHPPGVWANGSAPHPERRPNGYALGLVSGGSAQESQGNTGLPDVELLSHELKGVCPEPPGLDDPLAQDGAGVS
Experimental: Human embryonic kidney 293 cells stably expressing the human adenosine A2A receptor (HEK293hA2AR) were kindly provided by Dr. J. Wang (Biogen/IDEC, Cambridge, MA, USA), CHO-spap cells stably expressing the wild-type (WT) hA2B receptor (CHO-spap-hA2BR) were kindly provided by S. J. Dowell (GlaxoSmithKline, Brentfort, UK).
(§1) All cells were grown to 80–90% confluency and detached from plates by scraping them into 5 mL phosphate-buffered saline. Detached cells were collected and centrifuged at 200 g for 5 min. Pellets derived from 100 15 cm Ø plates were pooled and resuspended in 70 mL of ice-cold 50 mM tris(hydroxymethyl)aminomethane (Tris)-HCl buffer, pH 7.4. A Heidolph Diax 900 homogenizer was used to homogenize the cell suspension. Membranes and the cytosolic fraction were separated by centrifugation at 100,000 g in a Beckman Optima LE-80 K ultracentrifuge (Beckman Coulter, Fullerton, CA, USA) at 4 °C for 20 min. The pellet was resuspended in 35 mL of the Tris-HCl buffer, and the homogenization and centrifugation steps were repeated. Tris-HCl buffer (25 mL) was used to resuspend the pellet, and adenosine deaminase (ADA) was added (0.8 U/mL) to break down endogenous adenosine. Membranes were stored in 250 µL and 500 µL aliquots at −80 °C. Total protein concentrations were measured using the bicinchoninic acid (BCA) method.
(§2) Nonspecific binding was determined in the presence of 100 µM adenosine-5-N-ethyluronamide (NECA). Incubations were terminated by rapid vacuum filtration to separate the bound and free radioligand through prewetted 96-well GF/B filter plates using a PerkinElmer Filtermate-harvester (Perkin Elmer, Groningen, The Netherlands). Filters were subsequently washed 12 times with ice-cold 50 mM Tris-HCl, pH 7.4.
(§3) The plates of all four adenosine receptor assays were dried at 55 °C after which MicroscintTM-20-cocktail was added (Perkin Elmer, Groningen, The Netherlands).
(§4) All experimental data were analyzed using the non-linear regression curve fitting program GraphPad Prism 7.0 (GraphPad Software Inc., San Diego, CA, USA). IC50 values obtained from competition displacement binding data were converted into Ki values using the Cheng–Prusoff equation.

[2] = biological target: T2, human adenosine A1 receptor (Homo sapiens, UniProt P30542); test: Radioligand displacement assay, human adenosine A1 receptor ([3H]DPCPX, CHOhA1R membranes); type: binding; conditions: test compound 10 µM; n = 3
T2 construct: expressed in transfected cells; host or cells: CHO cells (CHOhA1R), gift of Prof; S. J. Hill; membrane preparation
T2 sequence (P30542 1-326): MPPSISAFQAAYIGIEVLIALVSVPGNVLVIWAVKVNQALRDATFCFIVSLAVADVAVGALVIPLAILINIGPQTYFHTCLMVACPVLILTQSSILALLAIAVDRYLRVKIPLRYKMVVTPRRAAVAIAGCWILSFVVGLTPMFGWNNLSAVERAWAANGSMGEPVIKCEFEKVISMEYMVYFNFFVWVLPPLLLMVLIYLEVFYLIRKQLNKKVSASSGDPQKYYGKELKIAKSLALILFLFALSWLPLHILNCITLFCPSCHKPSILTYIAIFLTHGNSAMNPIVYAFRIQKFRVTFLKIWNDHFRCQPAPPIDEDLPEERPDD
Experimental: as §1, with “Chinese hamster ovary (CHO) cells stably expressing the human adenosine A1 receptor (CHOhA1R) were kindly provided by Prof. S. J. Hill and CHO cells stably expressing the human adenosine A3 receptor (CHOhA3R) were a gift from Dr. K.-N. Klotz (University of Würzburg, Germany). Chinese hamster ovary cells stably expressing the human A1-receptor (CHOhA1R) or the human A3-receptor (CHOhA3R) were grown in Dulbecco’s Modified Eagle’s Medium (DMEM) and Ham’s F12 medium (1:1) supplemented with 10% (v/v) newborn calf serum, 50 µg/mL streptomycin, 50 IU/mL penicillin, and 200 µg/mL G418 at 37 °C and 5% CO2. […] All” for “All”
as §2, with “A1 Receptor: Membrane aliquots containing 5 µg (CHOhA1R) protein were incubated in a total volume of 100 µL assay buffer (50 mM Tris-HCl, pH 7.4) at 25 °C for 1 h. […] Nonspecific” for “Nonspecific”, “N^6-cyclopentyladenosine (CPA).” for “adenosine-5-N-ethyluronamide (NECA).”, “the” for “The”
as §3, §4

SMILES: CSc1cc(N)c2ncn([C@H]3[C@H](O)[C@H](O)[C@]4(CO)C[C@H]34)c2n1 [Compound 17, (1R,2R,3S,4R,5S)-4-(7-Amino-5-methylthio-3H-imidazo[4,5-b]pyridin-3-yl)-1-(hydroxymethyl)bicyclo[3.1.0]hexane-2,3-diol]
- A2A displacement at 10 µM [1]: 3%
- inhibition at 10 µM [2]: 23%

SMILES: OC[C@@]12C[C@@H]1[C@@H](n1cnc3c(N(Cc4ccccc4)Cc4ccccc4)ncnc31)[C@H](O)[C@@H]2O [Compound 26, (1R,2R,3S,4R,5S)-4-[6-(Dibenzylamino)-9H-purin-9-yl]-1-(hydroxymethyl)bicyclo[3.1.0]hexane-2,3-diol]
- A2A displacement at 10 µM [1]: 9%
- inhibition at 10 µM [2]: 25%

SMILES: CSc1cc(NCc2ccccc2)c2ncn([C@H]3[C@H](O)[C@H](O)[C@]4(CO)C[C@H]34)c2n1 [Compound 14, (1R,2R,3S,4R,5S)-4-[7-(Benzylamino)-5-methylthio-3H-imidazo[4,5-b]pyridin-3-yl]-1-(hydroxymethyl)bicyclo[3.1.0]hexane-2,3-diol]
- A2A displacement at 10 µM [1]: 4%
- inhibition at 10 µM [2]: 20%

SMILES: COC(=O)c1cn(C[C@@]23C[C@@H]2[C@@H](n2cnc4c(N)nc(SC)nc42)[C@H](O)[C@@H]3O)nn1 [Compound 40, Methyl 1-{[(1R,2R,3S,4R,5S)-4-(6-amino-2-methylthio-9H-purin-9-yl)-2,3-dihydroxybicyclo[3.1.0]hex-1-yl]methyl}-1H-1,2,3-triazole-4-carboxylate]
- A2A displacement at 10 µM [1]: 3%
- inhibition at 10 µM [2]: 7%

SMILES: COC(=O)CCc1cn(C[C@@]23C[C@@H]2[C@@H](n2cnc4c(N)nc(SC)nc42)[C@H](O)[C@@H]3O)nn1 [Compound 42, Methyl 3-(1-{[(1R,2R,3S,4R,5S)-4-(6-amino-2-methylthio-9H-purin-9-yl)-2,3-dihydroxybicyclo[3.1.0]hex-1-yl]methyl}-1H-1,2,3-triazol-4-yl)propanoate]
- A2A displacement at 10 µM [1]: 29%
- inhibition at 10 µM [2]: 19%
